The target of data set [1] is T1, RXFP1 (Homo sapiens, UniProt Q9HBX9).
T1 construct: OVCAR5 cells expressing endogenous RXFP1; endogenous in cells; host or cells: OVCAR5 cells
T1 sequence (Q9HBX9 1-757): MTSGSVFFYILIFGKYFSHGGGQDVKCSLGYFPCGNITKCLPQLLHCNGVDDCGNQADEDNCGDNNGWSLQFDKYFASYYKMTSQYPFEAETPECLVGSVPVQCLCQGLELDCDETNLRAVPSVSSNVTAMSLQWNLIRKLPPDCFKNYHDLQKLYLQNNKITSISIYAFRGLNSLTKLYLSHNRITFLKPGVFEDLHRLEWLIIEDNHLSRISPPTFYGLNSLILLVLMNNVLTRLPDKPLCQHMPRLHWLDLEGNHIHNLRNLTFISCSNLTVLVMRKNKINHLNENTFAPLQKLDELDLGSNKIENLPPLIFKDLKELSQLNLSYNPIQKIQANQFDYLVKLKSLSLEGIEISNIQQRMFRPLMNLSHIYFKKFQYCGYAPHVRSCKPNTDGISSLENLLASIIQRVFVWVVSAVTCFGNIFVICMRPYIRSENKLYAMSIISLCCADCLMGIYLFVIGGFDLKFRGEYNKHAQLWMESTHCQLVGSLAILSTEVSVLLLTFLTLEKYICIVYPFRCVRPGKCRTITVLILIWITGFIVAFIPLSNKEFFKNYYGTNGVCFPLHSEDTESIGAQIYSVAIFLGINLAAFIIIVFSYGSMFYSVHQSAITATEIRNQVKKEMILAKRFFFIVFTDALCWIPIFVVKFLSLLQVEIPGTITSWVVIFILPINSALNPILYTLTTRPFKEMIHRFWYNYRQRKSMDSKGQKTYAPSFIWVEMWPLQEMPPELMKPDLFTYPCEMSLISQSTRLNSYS
Description: OVCAR5 cAMP assay (HTRF), RXFP1 agonist activity. The class given is cell-based. The settings on record: for EC50: OVCAR5 cells, cAMP HTRF, read-out: EC50 (nM), OVCAR 5 cells (cAMP); for Emax: OVCAR-5, maximal cAMP relative to H2-relaxin maximum (100%), read-out: EMax, OVCAR 5 cells (cAMP). In a few lines: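 cAMP accumulation readout: after 1 mM IBMX for 40 min, endogenous-RXFP1 OVCAR5 cells got rising peptide concentrations without FCS, 30 min, 37° C, then lysis with HTRF cAMP reagents. Nonlinear regression gave EC50; Emax expressed relative to H2-relaxin maximum, same occasion.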

Data set [2] is described as follows: Pharmacokinetic (PK) determination after i.v. or s.c. administration to rats. The format is in vivo, Sprague Dawley rats. The following applies: Sprague Dawley, Rat PK; for C0 / half-life: iv, 1 mg/kg i.v.; for C0: extrapolated plasma concentration at t=0, read-out: C0; for half-life / Cmax / Tmax / bioavailability: plasma; for half-life: read-out: T½ (converted); for Cmax / Tmax: sc, 3 mg/kg s.c.; for bioavailability: subcutaneous, 3 mg/kg s.c. vs 1 mg/kg i.v., dose-corrected AUC ratio. In a few lines: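 Non-compartmental analysis of plasma LC/MS data (protein precipitation, BLQ taken as zero) gave T½, C0 (i.v.), Cmax/Tmax (s.c.) and F% from dose-corrected AUCs. Dosing: 3 mg/kg s.c. or 1 mg/kg i.v. in PBS to Sprague Dawley rats, purity- and salt-corrected.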

The structures appear in SMILES notation. *1 amine or outer side, *2 acyl side, *3 side chain or, on linkers, in order; H or OH if unused. Where a SMILES comes first, the peptide text is derived from it. Side-chain parts run from the residue outwards. [ ]: non-standard residue; d: D form. The star is where a group is joined. X4 = CCCCCCCCCCCCCCCC(=O)N[C@@H](CCC(=O)N[C@@H](CCC(=O)NCCCC[C@H](NC(=O)CC[C@H](NC(=O)CC[C@H](NC(=O)CCC(=O)NCCCOCCOCCOCCCNC(=O)CCC(=O)NCCCOCCOCCOCCCNC(=O)CCC(=O)NCCCOCCOCCOCCCN*)C(=O)O)C(=O)O)C(N)=O)C(=O)O)C(=O)O; X6 = CCCCCCCCCCCCCCC(=O)N[C@@H](CCC(=O)N[C@@H](CCC(=O)NCCCC[C@H](NC(=O)CC[C@H](NC(=O)CC[C@H](NC(=O)CCC(=O)NCCCOCCOCCOCCCNC(=O)CCC(=O)NCCCOCCOCCOCCCNC(=O)CCC(=O)NCCCOCCOCCOCCCN*)C(=O)O)C(=O)O)C(N)=O)C(=O)O)C(=O)O; X3 = CCCCCCCCCCCCCCCC(=O)N[C@@H](CCC(=O)N[C@@H](CCC(=O)N[C@@H](CCC(=O)N[C@@H](CCC(=O)NCCCC[C@H](NC(=O)CCC(=O)NCCCOCCOCCOCCCNC(=O)CCC(=O)NCCCOCCOCCOCCCN*)C(N)=O)C(=O)O)C(=O)O)C(=O)O)C(=O)O; X5 = CCCCCCCCCCCCCCCC(=O)N[C@@H](CCC(=O)NCCCC[C@H](NC(=O)CC[C@H](NC(=O)CC[C@H](NC(=O)CC[C@H](NC(=O)CCC(=O)NCCCOCCOCCOCCCNC(=O)CCC(=O)NCCCOCCOCCOCCCN*)C(=O)O)C(=O)O)C(=O)O)C(N)=O)C(=O)O; γGlu = O=C(O)[C@H](CCC(=O)[*:2])N[*:1]; Palmitoyl = CCCCCCCCCCCCCCCC(=O)*; αMeK = C[C@](N)(CCCCN)C(=O)O; Nle = CCCC[C@H](N)C(=O)O; AEEA = NCCOCCOCC(=O)O; Aib = CC(C)(N)C(=O)O

Usually EC50 stands for the concentration needed to bring the measured effect to its halfway point. The term Emax denotes the maximal effect, on the per cent scale that the assay sets. The term Cmax denotes the maximum level reached in the sampled fluid or tissue. For orientation: Tmax means the time at which the peak concentration occurs. As usually defined, the bioavailability is dose-corrected exposure relative to a reference, in per cent. As to `CCCCCCCCCCCCCCCC(=O)N[C@@H](CCC(=O)NCCCC[C@H](NC(=O)CC[C@H](NC(=O)CC[C@H](NC(=O)CC[C@H](NC(=O)CCC(=O)NCCCOCCOCCOCCCNC(=O)CCC(=O)NCCCOCCOCCOCCCNC(=O)[C@H](CCCCNC(C)=O)NC(=O)[C@H](C)NC(=O)[C@H](CCCNC(=N)N)NC(=O)[C@](C)(CCCCN)NC(=O)[C@H](CO)NC(=O)[C@H](Cc1ccccc1)NC(=O)[C@@H](NC(=O)[C@H](CO)NC(=O)[C@H](CCCC)NC(=O)CNC(=O)[C@H](CCC(=O)O)NC(=O)C(C)(C)NC(=O)C(C)(C)NC(=O)[C@@H](NC(=O)[C@H](CCCCNC(C)=O)NC(=O)[C@H](C)NC(=O)[C@H](CCCNC(=N)N)NC(=O)[C@@H](NC(=O)[C@H](CCCCN)NC(=O)[C@H](CCC(=O)O)NC(=O)[C@H](CCCNC(=N)N)NC(=O)CNC(=O)[C@H](CCC(=O)O)NC(=O)[C@H](CC(C)C)NC(C)=O)C(C)C)[C@@H](C)CC)[C@@H](C)O)C(=O)O)C(=O)O)C(=O)O)C(N)=O)C(=O)O` [compound 157] (Ac-LEGREKVRAK(Ac)I[Aib][Aib]EG[Nle]STFS[αMeK]RAK(Ac)-X5), in data set [1], the EC50 came out at 0.02 nM and the Emax is 89%. In data set [2], the C0 was 4350 nM, the half-life was 6.69 h, the maximum concentration (Cmax) stood at 1510 nM and the Tmax amounted to 8 h. The bioavailability in data set [2] was 59%.

For the molecule `CCCCCCCCCCCCCCCC(=O)N[C@@H](CCC(=O)N[C@@H](CCC(=O)NCCCC[C@H](NC(=O)CC[C@H](NC(=O)CC[C@H](NC(=O)COCCOCCNC(=O)COCCOCCNC(=O)COCCOCCNC(=O)COCCOCCNC(=O)[C@H](CCCCNC(C)=O)NC(=O)[C@H](C)NC(=O)[C@H](CCCNC(=N)N)NC(=O)[C@](C)(CCCCN)NC(=O)[C@H](CO)NC(=O)[C@H](Cc1ccccc1)NC(=O)[C@@H](NC(=O)[C@H](CO)NC(=O)[C@H](CCCC)NC(=O)CNC(=O)[C@H](CCC(=O)O)NC(=O)C(C)(C)NC(=O)C(C)(C)NC(=O)[C@@H](NC(=O)[C@H](CCCCNC(C)=O)NC(=O)[C@H](C)NC(=O)[C@H](CCCNC(=N)N)NC(=O)[C@@H](NC(=O)[C@H](CCCCN)NC(=O)[C@H](CCC(=O)O)NC(=O)[C@H](CCCNC(=N)N)NC(=O)CNC(=O)[C@H](CCC(=O)O)NC(=O)[C@H](CC(C)C)NC(C)=O)C(C)C)[C@@H](C)CC)[C@@H](C)O)C(=O)O)C(=O)O)C(N)=O)C(=O)O)C(=O)O` [compound 160] (Ac-LEGREKVRAK(Ac)I[Aib][Aib]EG[Nle]STFS[αMeK]RAK(Ac)[AEEA][AEEA][AEEA][AEEA][γGlu][γGlu]K([γGlu-γGlu-Palmitoyl])-NH2), in data set [1], the EC50 stood at 0.28 nM and the Emax was found to be 86%. Also, in data set [2], the C0 was 2500 nM, the half-life is 5.3 h, the Cmax worked out at 1200 nM and the Tmax stood at 7 h. In addition, the bioavailability in data set [2] was 66%.

Take `CCCCCCCCCCCCCCCC(=O)N[C@@H](CCC(=O)N[C@@H](CCC(=O)N[C@@H](CCC(=O)N[C@@H](CCC(=O)NCCCC[C@H](NC(=O)CCC(=O)NCCCOCCOCCOCCCNC(=O)CCC(=O)NCCCOCCOCCOCCCNC(=O)[C@H](CCCCNC(C)=O)NC(=O)[C@H](C)NC(=O)[C@H](CCCNC(=N)N)NC(=O)[C@](C)(CCCCN)NC(=O)[C@H](CO)NC(=O)[C@H](Cc1ccccc1)NC(=O)[C@@H](NC(=O)[C@H](CO)NC(=O)[C@H](CCCC)NC(=O)CNC(=O)[C@H](CCC(=O)O)NC(=O)C(C)(C)NC(=O)C(C)(C)NC(=O)[C@@H](NC(=O)[C@H](CCCCNC(C)=O)NC(=O)[C@H](C)NC(=O)[C@H](CCCNC(=N)N)NC(=O)[C@@H](NC(=O)[C@H](CCCCN)NC(=O)[C@H](CCC(=O)O)NC(=O)[C@H](CCCNC(=N)N)NC(=O)CNC(=O)[C@H](CCC(=O)O)NC(=O)[C@H](CC(C)C)NC(C)=O)C(C)C)[C@@H](C)CC)[C@@H](C)O)C(N)=O)C(=O)O)C(=O)O)C(=O)O)C(=O)O` [compound 162] (Ac-LEGREKVRAK(Ac)I[Aib][Aib]EG[Nle]STFS[αMeK]RAK(Ac)-X3): in data set [1], the EC50 is 0.12 nM and the Emax was 91%. Also, in data set [2], the C0 was 3200 nM, the half-life was 5 h, the Cmax was determined as 2300 nM and the Tmax was 5 h. In addition, in data set [2], the bioavailability is 64%.

For the molecule `CCCCCCCCCCCCCCCC(=O)N[C@@H](CCC(=O)N[C@@H](CCC(=O)NCCCC[C@H](NC(=O)CC[C@H](NC(=O)CC[C@H](NC(=O)CCC(=O)NCCCOCCOCCOCCCNC(=O)CCC(=O)NCCCOCCOCCOCCCNC(=O)CCC(=O)NCCCOCCOCCOCCCNC(=O)[C@H](CCCCNC(C)=O)NC(=O)[C@H](C)NC(=O)[C@H](CCCNC(=N)N)NC(=O)[C@](C)(CCCCN)NC(=O)[C@H](CO)NC(=O)[C@H](Cc1ccccc1)NC(=O)[C@@H](NC(=O)[C@H](CO)NC(=O)[C@H](CCCC)NC(=O)CNC(=O)[C@H](CCC(=O)O)NC(=O)C(C)(C)NC(=O)C(C)(C)NC(=O)[C@@H](NC(=O)[C@H](CCCCNC(C)=O)NC(=O)[C@H](C)NC(=O)[C@H](CCCNC(=N)N)NC(=O)[C@@H](NC(=O)[C@H](CCCCN)NC(=O)[C@H](CCC(=O)O)NC(=O)[C@H](CCCNC(=N)N)NC(=O)CNC(=O)[C@H](CCC(=O)O)NC(=O)[C@H](CC(C)C)NC(C)=O)C(C)C)[C@@H](C)CC)[C@@H](C)O)C(=O)O)C(=O)O)C(N)=O)C(=O)O)C(=O)O` [compound 169] (Ac-LEGREKVRAK(Ac)I[Aib][Aib]EG[Nle]STFS[αMeK]RAK(Ac)-X4), in data set [1], the EC50 turned out to be 0.01 nM and the Emax is 89%. Also, in data set [2], the C0 is 3040 nM, the half-life is 5.8 h, the Cmax came out at 1890 nM and the Tmax turned out to be 6 h. Further, the bioavailability in data set [2] was determined as 69%.

As for `CCCCCCCCCCCCCCC(=O)N[C@@H](CCC(=O)N[C@@H](CCC(=O)NCCCC[C@H](NC(=O)CC[C@H](NC(=O)CC[C@H](NC(=O)CCC(=O)NCCCOCCOCCOCCCNC(=O)CCC(=O)NCCCOCCOCCOCCCNC(=O)CCC(=O)NCCCOCCOCCOCCCNC(=O)[C@H](CCCCNC(C)=O)NC(=O)[C@H](C)NC(=O)[C@H](CCCNC(=N)N)NC(=O)[C@](C)(CCCCN)NC(=O)[C@H](CO)NC(=O)[C@H](Cc1ccccc1)NC(=O)[C@@H](NC(=O)[C@H](CO)NC(=O)[C@H](CCC(N)=O)NC(=O)CNC(=O)[C@H](CCC(=O)O)NC(=O)C(C)(C)NC(=O)C(C)(C)NC(=O)[C@@H](NC(=O)[C@H](CCCCNC(C)=O)NC(=O)[C@H](C)NC(=O)[C@H](CCCNC(=N)N)NC(=O)[C@@H](NC(=O)[C@H](CCCCN)NC(=O)[C@H](CCC(=O)O)NC(=O)[C@H](CCCNC(=N)N)NC(=O)CNC(=O)[C@H](CCC(=O)O)NC(=O)[C@H](CC(C)C)NC(C)=O)C(C)C)[C@@H](C)CC)[C@@H](C)O)C(=O)O)C(=O)O)C(N)=O)C(=O)O)C(=O)O` [compound 184] (Ac-LEGREKVRAK(Ac)I[Aib][Aib]EGQSTFS[αMeK]RAK(Ac)-X6), in data set [1], the maximal effect (Emax) came to 100%. In addition, in data set [2], the C0 is 4700 nM, the half-life is 7.3 h, the Cmax was 2800 nM and the Tmax stood at 7 h. The bioavailability in data set [2] stood at 71%.
